# Literature values, collected in US9724355B2, “Fulvestrant compositions and methods of use” (SHIMODA BIOTECH (PTY) LTD, priority 2010, dated 2017).
# Details: cited from earlier work
row,Molecule,Water Solubility (25° C.) [mg/mL]
1,CC(O)COC[C@H]1O[C@@H]2O[C@H]3[C@H](O)[C@@H](O)[C@@H](O[C@H]4[C@H](O)[C@@H](O)[C@@H](O[C@H]5[C@H](O)[C@@H](O)[C@@H](O[C@H]6[C@H](O)[C@@H](O)[C@@H](O[C@H]7[C@H](O)[C@@H](O)[C@@H](O[C@H]8[C@H](O)[C@@H](O)[C@@H](O[C@H]1[C@H](O)[C@H]2O)O[C@@H]8COCC(C)O)O[C@@H]7COCC(C)O)O[C@@H]6COCC(C)O)O[C@@H]5COCC(C)O)O[C@@H]4COCC(C)O)O[C@@H]3COCC(C)O (stereo partly drawn) [Hydroxypropyl beta-cyclodextrin],>750
2,Methyl beta-cyclodextrin,>750
3,Sulfobutylether beta-cyclodextrin,>500
